Reference: patent US9371365B2, “Modified compstatin with peptide backbone and C-terminal modifications” (The Trustees of the University of Pennsylvania, priority 2009, dated 2016)

Experiment: In vivo retention: plasma half-life in baboons by LC-MS/MS
Parameters: species or system baboon (P. Anubis)
Details: P. Anubis, baboon (P. Anubis), in vivo, iv, 10 mg
Procedure: A 96-well plate HLB Oasis 10 mg (Waters, Milford, Mass.) was employed for extraction. The SPE material was conditioned by addition of 500 μl of methanol followed by addition of 500 μL of milli-Q water. Sample was prepared by addition of the internal standard followed by 1:1 dilution with 4% H3PO4. After loading the sample, washing was carried out with 500 μL of 5% methanol in 0.1% formic acid. Sample was eluted with 150 μL of 65% methanol in 0.1% formic acid and collected in the collection plate. Solvent was evaporated to dryness in a speed-vac concentrator and reconstituted in 5% acetonitrile in 0.1% formic acid. Samples were kept at −20° C. until analysis.
Baboon plasma samples, 40 μL, were mixed with internal standard and dissolved 1:1 with 40 mM ammonium carbonate buffer. Rapigest detergent was added to a final concentration of 0.1%. Disulfide bridges were reduced in 5 mM DTT for 30 min at 60° C. Alkylation of cysteines was done by addition of iodoacetamide to a final concentration of 15 mM and incubation for 30 min in dark. The sample was enzymatically digested by addition of 16 μL of a 1 μG/μL trypsin solution and incubation overnight at 37° C. After that, the sample pH was lowered with 5% TFA to induce detergent degradation. To avoid nonspecific adsorption of very hydrophobic peptides, acetonitrile was added to 20%. The samples were centrifuged at 6° C. and 14000 rpm for 30 min and the supernatant was diluted with 0.1% formic acid to reduce acetonitrile concentration to 10% prior to filtration with a 10 kDa cut-off microcon centrifugal filter (Millipore, Billerica, Mass.). The filter was washed with 50 μL of 10% ACN in 0.1% formic acid and the collected sample was evaporated to dryness and reconstituted with 10% ACN in 0.1% formic acid.
LC-MS/MS analysis was performed on a SYNAPT HDMS (Waters, Milford, Mass.) controlled by MassLynx 4.1 software (Waters) and equipped with a nanoESI source. Each sample was injected in triplicate. A nanoACQUITY UPLC (Waters) system was used for peptide separation by reversed-phase liquid chromatography. After injection, analytes were trapped for 3 min with 3% mobile phase A (0.1% formic acid in water) at 5 μl/min on a 5 μm Symmetry C18 column (180 μm×20 mm, Waters) and further separated on a 1.7 μm BEH130 C18 column (75 μm×150 mm, Waters). The analytical column temperature was held at 35° C. Peptides were separated at flow rate 0.3 μl/min. The gradient was linear 3-40% B (0.1% formic acid in acetonitrile), either 50 min long, or 60 min for the digested samples. The capillary voltage was 3.2 kV, the cone voltage was 35 V and the source temperature was 100° C. [Glu1]-fibrinogen peptide was used for lock-mass correction with a sampling rate of 30 s. Mass spectra were acquired in positive mode over an m/z range 400-2000 Da at scan rate 0.6 s. The time window used for the MS/MS function was ±3 min of the retention time of the selected peptide. The presence of the analyte was confirmed by MS/MS. Selectivity was studied by analysis of blank samples to determine the presence of any interference coeluting with the analyte.
Juvenile baboons (P. Anubis, Baboon Research Resources, University of Oklahoma) weighing 5-8 kg were used. Three baboons were used for the study; one for each compound. All animals received a bolus dose of peptides (10 mg) by injection through the peripheral vein. […]

CC[C@H](C)[C@H](NC(=O)[C@@H]1CSSC[C@H](NC(=O)[C@@H](NC(C)=O)[C@@H](C)CC)C(=O)N[C@@H](C(C)C)C(=O)N[C@@H](Cc2cn(C)c3ccccc23)C(=O)N[C@@H](CCC(N)=O)C(=O)N[C@@H](CC(=O)O)C(=O)N[C@@H](Cc2c[nH]c3ccccc23)C(=O)N(C)CC(=O)N[C@@H](C)C(=O)N[C@@H](Cc2c[nH]cn2)C(=O)N[C@@H](CCCNC(=N)N)C(=O)N1)C(N)=O [Peptide 17, Ac−Ic[CV(^1−MeW)QDW(^N−MeG)AHRC]I-NH2]
half-life: ~1 h
